Data reported in US12215363B2, “Balanced indels” (Keygene N.V., priority 2017, dated 2025).

Tests used:
[1] = tested on: tomato protoplasts; test: Recovery of chlorsulfuron resistant calli after transfection of tomato protoplasts; assay type: cell-based, Solanum lycopersicon var Moneyberg; conditions: ALS1/ALS2 alleles sequenced from chlorsulfuron resistant calli versus alleles seen only in protoplast sequence data
Procedure: (§1) For the protoplast transfections 10 μg of KG9387 and 20 μg of one of the sgRNA expressing plasmids (KG10177, KG10190, KG10191, KG10240) mixed with 500 μL (500000 protoplasts) of the protoplast suspension and 500 μL of PEG solution (400 g/l poly(ethylene glycol) 4000, Sigma-Aldrich #81240; 0.1M Ca(NO3)2) was then added and the transfection was allowed to take place for 20 minutes at room temperature. Control samples were also produced by omitting one or both of the plasmids from the transfection. Then, 10 mL of 0.275 M Ca(NO3)2 solution was added and thoroughly, but gently mixed in. The protoplasts were harvested by centrifugation for 5 minutes at 800 rpm and resuspended in 9M culture medium at a density of 0.5×10^6 per ml and transferred to a 4 cm diameter petri dish and an equal volume of 2% alginate solution (20 g/l Alginate-Na (Sigma-Aldrich #A0682), 0.14 g/l CaCl2.2H2O, 90 g/l mannitol) was added. […]
(§2) Total genomic DNA was isolated from tomato protoplasts (48 hrs post transfection) using the DNeasy Plant Mini Kit (Qiagen). […] After sequencing the reads derived from each sample were processed to identify the number and types of sequence changes present at the target site. […]

[2] = tested on: ALS1/ALS2 target sequence; test: Indel formation at the ALS1/ALS2 target sites in transfected tomato protoplasts (amplicon sequencing, MiSeq); assay type: cell-based, Solanum lycopersicon var Moneyberg; conditions: genomic DNA 48 hours after transfection
Procedure: as §1, §2

GRRGGLIGT: ALS amino acid change from other pairs of indels in the sequence data, not recovered in resistant calli
Chlorsulfuron resistance phenotype of the altered ALS allele (in words) [1]: not resistance alleles

GQVPGGLMIGT: ALS amino acid change from other pairs of indels in the sequence data, not recovered in resistant calli
Chlorsulfuron resistance phenotype of the altered ALS allele (in words) [1]: not resistance alleles

B1: KG10240: cassette (SEQ ID NO. 28) expressing all sgRNAs of KG10177, KG10190 and KG10191 separated by tRNA sequences (nucleic acid)
DNA: GGAGTGATCAAAAGTCCCACATCGATCAGGTGATATATAGCAGCTTAGTTTATATAATGATAGAGTCGACATAGCGATTGAACAAAGCACCAGTGGTCTAGTGGTAGAATAGTACCCTGCCACGGTACAGACCCGGGTTCGATTCCCGGCTGGTGCACAAGTGCCGAGGAGGATGATGTTTTAGAGCTAGAAATAGCAAGTTAAAATAAGGCTAGTCCGTTATCAACTTGAAAAAGTGGCACCGAGTCGGTGCAACAAAGCACCAGTGGTCTAGTGGTAGAATAGTACCCTGCCACGGTACAGACCCGGGTTCGATTCCCGGCTGGTGCACATCCTCCTCGGCACTTGACGTTTTAGAGCTAGAAATAGCAAGTTAAAATAAGGCTAGTCCGTTATCAACTTGAAAAAGTGGCACCGAGTCGGTGCAACAAAGCACCAGTGGTCTAGTGGTAGAATAGTACCCTGCCACGGTACAGACCCGGGTTCGATTCCCGGCTGGTGCATTACCGGTCAAGTGCCGAGGGTTTTAGAGCTAGAAATAGCAAGTTAAAATAAGGCTAGTCCGTTATCAACTTGAAAAAGTGGCACCGAGTCGGTGCTTTTTTTCTAGACCCAGCTTTCTTGTACAAAGTTGGCATTACGCT
modifications: KG10240
Sequence reads with indels at ALS1 and ALS2 target sites (in words) [2]: resulted in reads that contained more than one indel
